Reference: patent US9897592B2, “Methods for identifying arthropod repellents and attractants, and compounds and compositions identified by such methods” (The Regents of the University of California, priority 2013, dated 2018)
Where a name gives a salt, the structure may show the parent alone.

Each molecule was assayed on cpA neuron (assay: Single-sensillum recording: activation of cpA neuron by odorants). Conditions: A. aegypti cpA, 0.5-s pulses, odorants 10^−2 in paraffin oil or water, solvent response subtracted.
Type: cell-based, Aedes aegypti
Description: FIG. 3b depicts representative traces and mean responses of the A. aegypti cpA neuron to 0.5-s pulses of 138 predicted compounds screened using single-sensillum recordings, in which odorants were diluted to 10^−2 in paraffin oil or water, and responses to solvent have been subtracted, n=2-6, and error bars are s.d.
FIG. 5f is a bar graph illustrating the mean responses of the A. aegypti cpA neuron to 0.5-s pulses of 22 newly predicted compounds screened as in FIG. 3b, where salmon bars correspond to odorants found in human odor, odorants were diluted to 10^−2 in paraffin oil or water, and responses to solvent have been subtracted, and n=2-5.
Adult female A. aegypti (Linnaeus 1762) (Rockefeller strain) A. gambiae sensu stricto Giles 1902 (G3 strain), or C. quinquefasciatus Say 1823 were tested 3-12 days post-emergence with single-sensillum extracellular recordings. Chemicals were obtained from Sigma-Aldrich at the highest purity (typically >99%) and were dissolved in paraffin oil or water. […] Response to clean beads was subtracted from the results reported. Only sensilla with cpA activity of <20 spikes s^−1 to negative control were considered for analysis.
CpA-off and sham treated mosquitoes were pre-treated for 3 min in an upended 1 L glass dish in which 100 μl of fresh butyryl chloride (1%) or paraffin oil was allowed to vaporize for 10-20 min. The odor delivery system for different screens is shown in FIG. 7b; solvent responses during the same recording session were subtracted. Inhibition screen was tested. For the ultra-prolonged activator the 3-s stimulus was delivered from a 10 ml disposable pipette using a CS-55 stimulus controller (Syntech), CO2 was delivered, and responses to subsequent odor stimuli were calculated by subtracting baseline activity 1 s prior to each stimulus. When responses to repeated pulses of cyclopentanone and CO2 were compared, baseline activity between seconds 5 and 6 following each stimulus was subtracted. Spike counting was done manually or with Igor Pro6.2 (Wavemetrics) with the Neuromatic v2.00 macro (by Jason Rothman), and peak-to-peak spike amplitudes for FIG. 8 were analysed in Clampfit 10.3 (Molecular Devices).
From the large list of cpA receptor ligands predicted from Example 3 above, 138 compounds were selected based on desirable criteria for application such as smell, presence in natural sources, human safety profile, and cost to procure. These compounds were tested individually using single-sensillum electrophysiology on the cp sensillum of female A. aegypti, according to the procedure described in Example 1 above.

Going from `CCc1ccc(C=O)cc1` [4-ethylbenzaldehyde] to `CCCc1ccc(O)cc1` [4-propylphenol], the “Activation (spikes s^−1)” value falls from 2.5 spikes s^−1 to −9.0 spikes s^−1.

Compared with `CC1=C(O)C(=O)OC1C` (centres unmarked) [4-hydroxy-2,3-dimethyl-2H-furan-5-one], `CC1CCC(=O)O1` (centres unmarked) [5-methyloxolan-2-one] is higher in “Activation (spikes s^−1)” value: 9.0 spikes s^−1 for the first, 10.0 spikes s^−1 for the second.

First: CC1(O)CCOC(=O)C1 (centres unmarked) [4-hydroxy-4-methyloxan-2-one]
Second: CC1=CCC(=O)O1 [5-methyl-3H-furan-2-one]
The “Activation (spikes s^−1)” value of the first is lower: −1.0 spikes s^−1 for the first, 56.0 spikes s^−1 for the second.

First: CC(=O)CC(C)(C)O [4-hydroxy-4-methylpentan-2-one]
Second: CC(=O)C=C(C)C [4-methylpent-3-en-2-one]
The “Activation (spikes s^−1)” value of the first is lower: 2.0 spikes s^−1 for the first, 34.0 spikes s^−1 for the second.

Compared with `Cc1cscn1` [4-methyl-1,3-thiazole], `C=Cc1scnc1C` [5-ethenyl-4-methyl-1,3-thiazole] is lower in “Activation (spikes s^−1)” value: 111.8 spikes s^−1 for the first, 50.5 spikes s^−1 for the second.

Going from `CC(C)=CC1CC(C)CCO1` (centres unmarked) [4-methyl-2-(2-methylprop-1-enyl)oxane] to `CC(=O)OCC1CCCO1` (centres unmarked) [oxolan-2-ylmethyl acetate], the “Activation (spikes s^−1)” value rises from 1.5 spikes s^−1 to 10.0 spikes s^−1.

First: CCCC1OCC(C)O1 (centres unmarked) [4-methyl-2-propyl-1,3-dioxolane]
Second: CCCS [propane-1-thiol]
The “Activation (spikes s^−1)” value of the first is lower: 13.0 spikes s^−1 for the first, 75.0 spikes s^−1 for the second.

Compared with `CC(C)CC(C)O` (centres unmarked) [4-methylpentan-2-ol], `COC(=O)C(C)C` [methyl 2-methylpropanoate] is higher in “Activation (spikes s^−1)” value: 24.0 spikes s^−1 for the first, 49.4 spikes s^−1 for the second.

First: CC(=O)CCC(=O)O [4-oxopentanoic acid]
Second: C=CCCC(C)=O [hex-5-en-2-one]
The “Activation (spikes s^−1)” value of the first is lower: 4.5 spikes s^−1 for the first, 63.4 spikes s^−1 for the second.

Going from `CC(=O)CCc1ccccc1` [4-phenylbutan-2-one] to `CC(=O)CC(=O)OCc1ccccc1` [benzyl 3-oxobutanoate], the “Activation (spikes s^−1)” value falls from 0.5 spikes s^−1 to −1.5 spikes s^−1.

Going from `CCCc1ccncc1` [4-propylpyridine] to `OCCCCCc1ccccc1` [5-phenylpentan-1-ol], the “Activation (spikes s^−1)” value falls from 34.0 spikes s^−1 to −3.0 spikes s^−1.

Compared with `c1cnc2c(n1)CCCC2` [5,6,7,8-tetrahydroquinoxaline], `O=C1CCCCN1` [piperidin-2-one] is higher in “Activation (spikes s^−1)” value: −5.5 spikes s^−1 for the first, 0.0 spikes s^−1 for the second.

First: Cc1cc(O)cc(O)c1 [5-methylbenzene-1,3-diol]
Second: Cc1ccc2ncccc2c1 [6-methylquinoline]
The “Activation (spikes s^−1)” value of the first is lower: 0.5 spikes s^−1 for the first, 9.5 spikes s^−1 for the second.

First: CCCCCCC1CCCC(=O)O1 (centres unmarked) [6-hexyloxan-2-one]
Second: CCCCCO [pentan-1-ol]
The “Activation (spikes s^−1)” value of the first is lower: 1.5 spikes s^−1 for the first, 50.5 spikes s^−1 for the second.

First: CC(C)=CCC/C(C)=C/C(=O)O [(2E)-3,7-dimethylocta-2,6-dienoic acid]
Second: CC(C)=CCC/C(C)=C/COC=O [[(2E)-3,7-dimethylocta-2,6-dienyl] formate]
The “Activation (spikes s^−1)” value of the first is higher: 3.0 spikes s^−1 for the first, −2.5 spikes s^−1 for the second.

Compared with `CC(C)[C@H](N)C(=O)O` [(2S)-2-amino-3-methylbutanoic acid], `COC(=O)OC` [dimethyl carbonate] is higher in “Activation (spikes s^−1)” value: 3.5 spikes s^−1 for the first, 73.6 spikes s^−1 for the second.

Compared with `O=C(O)[C@@H]1CCCN1` [(2S)-pyrrolidine-2-carboxylic acid], `O=C1CCCN1` [pyrrolidin-2-one] is lower in “Activation (spikes s^−1)” value: 3.5 spikes s^−1 for the first, 0.0 spikes s^−1 for the second.

Going from `C/C=C(\C)C(=O)O` [(E)-2-methylbut-2-enoic acid] to `C/C=C/C(=O)O` [(E)-but-2-enoic acid], the “Activation (spikes s^−1)” value falls from 2.5 spikes s^−1 to −1.5 spikes s^−1.

First: CCC/C=C/CO [(E)-hex-2-en-1-ol]
Second: CCCCCC/C=C\CO [(Z)-non-2-en-1-ol]
The “Activation (spikes s^−1)” value of the first is higher: 31.0 spikes s^−1 for the first, −1.5 spikes s^−1 for the second.

Compared with `CC/C=C/C=O` [(E)-pent-2-enal], `CC/C=C\CCO` [(Z)-hex-3-en-1-ol] is higher in “Activation (spikes s^−1)” value: −5.0 spikes s^−1 for the first, 2.5 spikes s^−1 for the second.

Compared with `CC/C=C\CCCCCO` [(Z)-non-6-en-1-ol], `C=CC(CCCCC)OC(=O)CCC` (centres unmarked) [oct-1-en-3-yl butanoate] is lower in “Activation (spikes s^−1)” value: 2.0 spikes s^−1 for the first, 0.0 spikes s^−1 for the second.

Compared with `c1ccsc1` [Thiophene], `c1ccnnc1` [pyridazine] is lower in “Activation (spikes s^−1)” value: 116.6 spikes s^−1 for the first, 2.5 spikes s^−1 for the second.

Compared with `O=COC/C=C/c1ccccc1` [[(E)-3-phenylprop-2-enyl] formate], `O=COCc1ccccc1` [benzyl formate] is higher in “Activation (spikes s^−1)” value: 3.0 spikes s^−1 for the first, 8.0 spikes s^−1 for the second.

First: CC(S)C(C)S (centres unmarked) [butane-2,3-dithiol]
Second: CC(C)OC(=O)c1ccccc1 [propan-2-yl benzoate]
The “Activation (spikes s^−1)” value of the first is higher: 25.0 spikes s^−1 for the first, 6.0 spikes s^−1 for the second.

Compared with `O=C1CCCC(=O)C1` [cyclohexane-1,3-dione], `O=C1CNCCN1` [piperazin-2-one] is lower in “Activation (spikes s^−1)” value: 1.5 spikes s^−1 for the first, −3.2 spikes s^−1 for the second.

Going from `OC1CCCCC1` [cyclohexanol] to `OCC1CCCC1` [cyclopentylmethanol], the “Activation (spikes s^−1)” value falls from 59.0 spikes s^−1 to 47.5 spikes s^−1.

Compared with `C/C=C/C(=O)OCC` [ethyl (E)-but-2-enoate], `CCOC(C)=O` [ethyl acetate] is higher in “Activation (spikes s^−1)” value: 22.0 spikes s^−1 for the first, 62.4 spikes s^−1 for the second.

Going from `CCOC=O` [ethyl formate] to `CCCOC=O` [propyl formate], the “Activation (spikes s^−1)” value rises from 34.5 spikes s^−1 to 58.0 spikes s^−1.

Going from `O=Cc1ccoc1` [furan-3-carbaldehyde] to `COCc1ccccc1` [methoxymethylbenzene], the “Activation (spikes s^−1)” value falls from 85.0 spikes s^−1 to 12.0 spikes s^−1.

Compared with `CCCC(O)CCC` [heptan-4-ol], `CCCC(=O)OC` [methyl butanoate] is higher in “Activation (spikes s^−1)” value: −3.0 spikes s^−1 for the first, 44.5 spikes s^−1 for the second.

Compared with `C=C(C)C(=O)OC` [methyl 2-methylprop-2-enoate], `COC(C)=O` [methyl acetate] is lower in “Activation (spikes s^−1)” value: 45.0 spikes s^−1 for the first, −50.5 spikes s^−1 for the second.

First: CCC(=O)OC [methyl propanoate]
Second: C=CCOC(=O)CC [prop-2-enyl propanoate]
The “Activation (spikes s^−1)” value of the first is higher: 75.0 spikes s^−1 for the first, 49.5 spikes s^−1 for the second.

First: C=CCOC(=O)CCC [prop-2-enyl butanoate]
Second: CCCOC(C)=O [propyl acetate]
The “Activation (spikes s^−1)” value of the first is lower: 16.0 spikes s^−1 for the first, 52.6 spikes s^−1 for the second.

Same assay, conditions: cpA neuron; 20 compounds from the top 200 SVM ligand predictions; negative values = inhibition; N = 4

Going from `CCC(C)O` (centres unmarked) [butan-2-ol] to `CC(C)O` [propan-2-ol], the “Activation (spikes s−1)” value falls from 63.8 spikes s−1 to 25.3 spikes s−1.

Compared with `C1CCCC1` [cyclopentane], `OC1CCCC1` [cyclopentanol] is higher in “Activation (spikes s−1)” value: 41.8 spikes s−1 for the first, 49.8 spikes s−1 for the second.

First: COC=O [methyl formate]
Second: CC(C)OC=O [propan-2-yl formate]
The “Activation (spikes s−1)” value of the first is lower: 59.3 spikes s−1 for the first, 63.8 spikes s−1 for the second.

Going from `CC1CCCC1` [methylcyclopentane] to `CSC` [methylsulfanylmethane], the “Activation (spikes s−1)” value rises from 16.3 spikes s−1 to 99.3 spikes s−1.

First: CCCO [propan-1-ol]
Second: CCC=O [propanal]
The “Activation (spikes s−1)” value of the first is higher: 60.8 spikes s−1 for the first, −33.8 spikes s−1 for the second.

In the case of `Sc1cccs1` [thiophene-2-thiol], the “Activation (spikes s−1)” value is reported as −35.5 spikes s−1.

Each molecule was assayed on CO2 receptor neuron (assay: Amines: inhibition of CO2 receptor neuron activity). Conditions: not given.
Type: cell-based
Parameters: % Inhibition: concentration or dose not given beside the values

Going from `NCCCNCCCCNCCCN` to `CNC` [N-methylmethanamine], the “% Inhibition” value rises from 94.81% to 100%.

Same assay, conditions: inhibition of CO2 receptor neuron activity by amines

`CN1CCCC1` [1-methylpyrrolidine] and `CCCCCN` [pentan-1-amine] are the same in “% Inhibition” value: 100% for the first, 100% for the second.

First: NCCCCNCCCN [N-(3-aminopropyl)-1,4-butanediamine]
Second: CCCCCCN [hexan-1-amine]
The “% Inhibition” value of the first is higher: 92.25% for the first, 86.61% for the second.
